The values that follow come from patent US20260207602A1, “EGFR INHIBITORS” (Blueprint Medicines Corporation, priority 2022, published 2026).

The target of one assay is T1, EGFR L858R (Homo sapiens, UniProt P00533, L858R).
T1 construct: purchased SignalChem E10-122BG
In words: Biochemical EGFR inhibition assay (Caliper mobility shift), EGFR L858R. To be noted: biochemical Caliper mobility shift assay, EGFR L858R enzyme; read-out: Enz EGFR L858R IC50. Put shortly:
(§1)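 Peptide phosphorylation by the mutant enzyme is followed at 25 °C with either 1.0 mM ATP or ATP at Km, in HEPES pH 7.5 containing 0.015% Brij-35 and 1.0% DMSO. After 10–20% substrate turnover, 35 mM EDTA ends the reaction and mobility shift quantifies product.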

The next assay has as its target T2, EGFR (d746-750) (Homo sapiens, UniProt P00533, DEL746-750).
T2 construct: purchased SignalChem E10-122JG
In words: Biochemical EGFR inhibition assay (Caliper mobility shift), EGFR (d746-750). To be noted: biochemical Caliper mobility shift assay, EGFR Exon 19-del enzyme; read-out: Enz EGFR Exon 19-del IC50. An outline of the steps:
as §1

Assay [1] deals with intracellular phosphorylation of EGFR (Tyr1068) in PC-9 cells (Homo sapiens, UniProt P00533, DEL746-750). In words: PC-9 pEGFR AlphaLISA assay. It counts as cell-based. Conditions: 4 hours incubation, read-out: Phos EGFR PC9 IC50. An outline of the steps: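 PC-9 cells (EGFR del746-750) in phenol-free DMEM/10% FBS, adhered overnight, then exposed to 10-point 4-fold compound dilutions for 4 h at 37 °C. Lysates assayed for pEGFR Tyr1068 by AlphaLISA SureFire Ultra; IC50 from percent pEGFR inhibition vs log concentration.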
Chain of intracellular phosphorylation of EGFR (Tyr1068) in PC-9 cells (P00533 with tags, fused parts or gaps DEL746-750): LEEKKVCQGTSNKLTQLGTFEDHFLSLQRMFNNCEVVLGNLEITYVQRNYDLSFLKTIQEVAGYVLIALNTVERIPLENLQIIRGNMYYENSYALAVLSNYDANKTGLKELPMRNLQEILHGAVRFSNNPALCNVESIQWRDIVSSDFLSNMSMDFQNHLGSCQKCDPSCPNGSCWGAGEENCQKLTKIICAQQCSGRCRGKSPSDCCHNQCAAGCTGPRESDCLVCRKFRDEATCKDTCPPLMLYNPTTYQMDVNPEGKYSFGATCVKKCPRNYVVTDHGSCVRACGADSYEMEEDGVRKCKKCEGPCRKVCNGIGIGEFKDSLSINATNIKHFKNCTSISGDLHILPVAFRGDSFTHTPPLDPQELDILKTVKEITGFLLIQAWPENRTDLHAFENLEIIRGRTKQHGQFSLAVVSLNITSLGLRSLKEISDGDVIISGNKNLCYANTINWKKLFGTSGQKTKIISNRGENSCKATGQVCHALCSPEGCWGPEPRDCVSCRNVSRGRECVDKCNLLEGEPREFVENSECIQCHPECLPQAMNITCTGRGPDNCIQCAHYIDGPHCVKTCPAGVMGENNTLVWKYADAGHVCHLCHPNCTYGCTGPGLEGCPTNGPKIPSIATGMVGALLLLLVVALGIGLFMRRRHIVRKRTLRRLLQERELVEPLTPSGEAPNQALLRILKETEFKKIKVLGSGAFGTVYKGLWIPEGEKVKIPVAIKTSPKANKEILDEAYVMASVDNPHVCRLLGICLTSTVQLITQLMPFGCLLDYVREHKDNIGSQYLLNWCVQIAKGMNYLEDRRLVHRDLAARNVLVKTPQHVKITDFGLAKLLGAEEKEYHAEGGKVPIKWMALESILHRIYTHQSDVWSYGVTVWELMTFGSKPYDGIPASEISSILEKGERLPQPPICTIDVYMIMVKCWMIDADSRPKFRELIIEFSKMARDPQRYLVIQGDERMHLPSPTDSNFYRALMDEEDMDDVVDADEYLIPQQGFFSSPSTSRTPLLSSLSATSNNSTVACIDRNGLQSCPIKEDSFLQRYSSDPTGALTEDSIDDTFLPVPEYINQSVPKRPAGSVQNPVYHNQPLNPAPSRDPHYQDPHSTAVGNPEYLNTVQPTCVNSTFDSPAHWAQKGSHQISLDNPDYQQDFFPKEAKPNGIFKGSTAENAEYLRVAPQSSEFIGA
On the technique in general: In Alpha technology, singlet oxygen from a donor bead excites a nearby acceptor bead.

T2 sequence (P00533 with tags, fused parts or gaps DEL746-750 limits assumed): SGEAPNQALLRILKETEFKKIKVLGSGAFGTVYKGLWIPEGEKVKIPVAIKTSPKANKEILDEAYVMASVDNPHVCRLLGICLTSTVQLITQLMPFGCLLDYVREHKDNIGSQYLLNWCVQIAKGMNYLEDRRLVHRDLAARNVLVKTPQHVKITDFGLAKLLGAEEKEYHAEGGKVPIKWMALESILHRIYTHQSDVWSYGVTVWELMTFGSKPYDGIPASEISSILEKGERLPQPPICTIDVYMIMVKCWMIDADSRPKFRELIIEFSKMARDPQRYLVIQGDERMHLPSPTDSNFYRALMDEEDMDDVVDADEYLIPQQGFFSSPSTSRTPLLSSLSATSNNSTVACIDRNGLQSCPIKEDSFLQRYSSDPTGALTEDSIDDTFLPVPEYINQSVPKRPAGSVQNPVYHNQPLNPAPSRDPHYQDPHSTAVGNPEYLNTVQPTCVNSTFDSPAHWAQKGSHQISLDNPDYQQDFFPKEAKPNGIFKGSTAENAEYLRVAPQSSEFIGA
T1 sequence (P00533 25-1210 L858R): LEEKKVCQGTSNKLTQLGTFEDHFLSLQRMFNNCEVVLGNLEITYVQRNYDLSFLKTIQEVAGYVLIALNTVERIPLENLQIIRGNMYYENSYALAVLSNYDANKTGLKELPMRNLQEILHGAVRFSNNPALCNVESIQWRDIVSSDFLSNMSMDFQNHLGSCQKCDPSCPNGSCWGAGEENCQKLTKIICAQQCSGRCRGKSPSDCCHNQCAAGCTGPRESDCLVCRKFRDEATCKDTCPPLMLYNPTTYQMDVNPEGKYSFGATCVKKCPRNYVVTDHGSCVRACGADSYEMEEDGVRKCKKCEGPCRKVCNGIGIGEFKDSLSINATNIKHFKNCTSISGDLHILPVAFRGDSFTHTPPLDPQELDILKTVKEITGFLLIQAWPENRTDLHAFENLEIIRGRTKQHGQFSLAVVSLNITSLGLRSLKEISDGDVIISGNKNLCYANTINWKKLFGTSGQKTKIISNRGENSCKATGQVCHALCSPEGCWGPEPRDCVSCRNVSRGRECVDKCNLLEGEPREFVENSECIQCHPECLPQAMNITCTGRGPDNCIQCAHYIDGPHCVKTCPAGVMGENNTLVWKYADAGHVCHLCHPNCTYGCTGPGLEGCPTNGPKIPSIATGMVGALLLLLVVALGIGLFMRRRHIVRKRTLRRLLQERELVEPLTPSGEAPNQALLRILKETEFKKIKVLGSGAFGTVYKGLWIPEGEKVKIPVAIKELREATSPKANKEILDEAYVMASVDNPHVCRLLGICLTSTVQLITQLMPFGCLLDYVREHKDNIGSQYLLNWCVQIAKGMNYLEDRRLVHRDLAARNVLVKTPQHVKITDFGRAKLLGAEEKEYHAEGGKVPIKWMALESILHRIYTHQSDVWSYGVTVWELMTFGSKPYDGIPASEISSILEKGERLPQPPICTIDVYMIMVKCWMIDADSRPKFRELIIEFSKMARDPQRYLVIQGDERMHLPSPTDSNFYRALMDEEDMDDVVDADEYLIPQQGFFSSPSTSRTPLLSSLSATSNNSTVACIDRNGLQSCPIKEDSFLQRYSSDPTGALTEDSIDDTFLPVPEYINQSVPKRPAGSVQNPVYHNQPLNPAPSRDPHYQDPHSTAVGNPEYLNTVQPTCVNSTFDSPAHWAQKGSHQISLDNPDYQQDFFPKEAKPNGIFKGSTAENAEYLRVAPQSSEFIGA

In general, IC50 refers to the concentration needed to halve the response being measured. Turning to `Cn1cc(-c2cc3ncnc(Nc4ccc5ncsc5c4F)c3cc2OC2CCOCC2)cn1` [Example 262, 7-fluoro-N-(7-(1-methyl-1H-pyrazol-4-yl)-6-((tetrahydro-2H-pyran-4-yl)oxy)quinazolin-4-yl)benzo[d]thiazol-6-amine], the IC50 (at EGFR L858R; on EGFR (d746-750); in assay [1]) was at most 10 nM throughout.

Consider `COc1cc2ncnc(Nc3ccc4ncsc4c3)c2cc1NC(=O)N1C[C@H]2CCN(C)[C@H]2C1` [Example 251, (3aR,6aR)-N-(4-(benzo[d]thiazol-6-ylamino)-7-methoxyquinazolin-6-yl)-1-methylhexahydropyrrolo[3,4-b]pyrrole-5(1H)-carboxamide], for which the concentration for half-maximal inhibition (IC50) on EGFR L858R was at most 10 nM; on EGFR (d746-750), at most 10 nM; in assay [1], 10.1 to 50 nM.

`Cn1cc(-c2cc(OC3CCN(CCO)CC3)c3c(Nc4ccc5ncsc5c4)ncnc3c2)cn1` [Example 312, 2-(4-((4-(benzo[d]thiazol-6-ylamino)-7-(1-methyl-1H-pyrazol-4-yl)quinazolin-5-yl)oxy)piperidin-1-yl)ethan-1-ol]: the concentration for half-maximal inhibition (IC50) is at most 10 nM at EGFR L858R, at most 10 nM on EGFR (d746-750) and 10.1 to 50 nM in assay [1].

Regarding `C[C@H](CN(C)C)Oc1cc(N2CC[C@@H](C(C)(C)O)C2)cc2ncnc(Nc3ccc4ncsc4c3)c12` (single isomer, unassigned) [Example 155], the half-maximal inhibitory concentration (IC50) (at EGFR L858R; at EGFR (d746-750); in assay [1]) was at most 10 nM throughout.

For `C[C@@H](Oc1cc(-c2cnn(C)c2)cc2ncnc(Nc3ccc4ncsc4c3)c12)[C@H]1CNCCO1` (single isomer, unassigned) [Example 207], the concentration for half-maximal inhibition (IC50) (at EGFR L858R; at EGFR (d746-750); in assay [1]) was at most 10 nM each time.

In the case of `COCCN1CCC(Oc2cc(-c3cn(C)nc3OC)cc3ncnc(Nc4ccc5ncsc5c4)c23)CC1` [Example 305, N-(7-(3-methoxy-1-methyl-1H-pyrazol-4-yl)-5-((1-(2-methoxyethyl)piperidin-4-yl)oxy)quinazolin-4-yl)benzo[d]thiazol-6-amine], the 50% inhibitory concentration (IC50) (at EGFR L858R; on EGFR (d746-750); in assay [1]) was at most 10 nM each time.

On to `C[C@@H](CN(C)C)Oc1cc(-c2cnn(C)c2)cc2ncnc(Nc3ccc4ncsc4c3)c12` (single isomer, unassigned) [Example 159, (S)—N-(5-((1-(dimethylamino)propan-2-yl)oxy)-7-(1-methyl-1H-pyrazol-4-yl)quinazolin-4-yl)benzo[d]thiazol-6-amine or (R)—N-(5-((1-(dimethylamino)propan-2-yl)oxy)-7-(1-methyl-1H-pyrazol-4-yl)quinazolin-4-yl)benzo[d]thiazol-6-amine], for which the figures for the concentration for half-maximal inhibition (IC50) (on EGFR L858R; on EGFR (d746-750); in assay [1]) were 10.1 to 50 nM, at most 10 nM and 10.1 to 50 nM, respectively.

Take `Cn1cc(-c2cc(OCC(=O)N3CC4(COC4)C3)c3c(Nc4ccc5ncsc5c4F)ncnc3c2)cn1` [Example 277, 2-((4-((7-fluorobenzo[d]thiazol-6-yl)amino)-7-(1-methyl-1H-pyrazol-4-yl)quinazolin-5-yl)oxy)-1-(2-oxa-6-azaspiro[3.3]heptan-6-yl)ethan-1-one]: the IC50 (at EGFR L858R; on EGFR (d746-750); in assay [1]) was at most 10 nM throughout.

For the compound `C[C@@H](Oc1cc(-c2cnn(C)c2)cc2ncnc(Nc3ccc4ncsc4c3)c12)[C@H](C)N(C)C` (single isomer, unassigned) [Example 144], the values for the concentration for half-maximal inhibition (IC50) (at EGFR L858R; at EGFR (d746-750); in assay [1]) were 10.1 to 50 nM, at most 10 nM and 10.1 to 50 nM, respectively.

In the case of `CN1CC[C@@H](Oc2cc(-c3cnn(C)c3)cc3ncnc(Nc4ccc5ncsc5c4F)c23)[C@H](F)C1` [Example 349, 7-fluoro-N-(5-(((3R,4R)-3-fluoro-1-methylpiperidin-4-yl)oxy)-7-(1-methyl-1H-pyrazol-4-yl)quinazolin-4-yl)benzo[d]thiazol-6-amine], the IC50 (at EGFR L858R; at EGFR (d746-750); in assay [1]) was at most 10 nM throughout.

As for `COc1cc(O[C@H](C)C2COC2)c2c(Nc3ccc4ncsc4c3F)ncnc2c1` (single isomer, unassigned) [Example 82], the 50% inhibitory concentration (IC50) at EGFR L858R is at most 10 nM; at EGFR (d746-750), at most 10 nM; in assay [1], 10.1 to 50 nM.

On to `COc1cc2ncnc(Nc3ccc4ncsc4c3)c2cc1NC(=O)CCN1CCCCC1` [Example 400, N-(4-(benzo[d]thiazol-6-ylamino)-7-methoxyquinazolin-6-yl)-3-(piperidin-1-yl)propanamide], for which the concentration for half-maximal inhibition (IC50) was 10.1 to 50 nM on EGFR L858R, at most 10 nM on EGFR (d746-750) and 10.1 to 50 nM in assay [1].

`Cn1cc(-c2cc(O[C@H]3CNC[C@H](F)C3)c3c(Nc4ccc5ncsc5c4)ncnc3c2)cn1` (racemic) [Example 331, trans-N-(5-(((3R,5R)-5-fluoropiperidin-3-yl)oxy)-7-(1-methyl-1H-pyrazol-4-yl)quinazolin-4-yl)benzo[d]thiazol-6-amine and N-(5-(((3S,5S)-5-fluoropiperidin-3-yl)oxy)-7-(1-methyl-1H-pyrazol-4-yl)quinazolin-4-yl)benzo[d]thiazol-6-amine]: the concentration for half-maximal inhibition (IC50) (on EGFR L858R; on EGFR (d746-750); in assay [1]) was at most 10 nM each time.

Regarding `CN1C[C@H](F)C[C@@H](Oc2cc(-c3cnn(C)c3)cc3ncnc(Nc4ccc5ncsc5c4)c23)C1` (single isomer, unassigned) [Example 333], the IC50 was at most 10 nM on EGFR L858R, at most 10 nM at EGFR (d746-750) and 10.1 to 50 nM in assay [1].

Take `CN(C)C[C@H](Oc1cc(-c2cnn(C)c2)cc2ncnc(Nc3ccc4ncsc4c3)c12)C(F)(F)F` (single isomer, unassigned) [Example 179]: the IC50 on EGFR L858R was above 50.1 nM; on EGFR (d746-750), 10.1 to 50 nM; in assay [1], above 50.1 nM.

As for `C[C@H](CO)Oc1cc(N2CCN(C)CC2)cc2ncnc(Nc3ccc4ncsc4c3F)c12` (single isomer, unassigned) [Example 295], the values for the half-maximal inhibitory concentration (IC50) (on EGFR L858R; on EGFR (d746-750); in assay [1]) were 10.1 to 50 nM, at most 10 nM and at most 10 nM, respectively.

Take `Cn1cc(-c2cc(OCC3(C)COC3)c3c(Nc4ccc5ncsc5c4)ncnc3c2)cn1` [Example 49, N-(7-(1-methyl-1H-pyrazol-4-yl)-5-((3-methyloxetan-3-yl)methoxy)quinazolin-4-yl)benzo[d]thiazol-6-amine]: the IC50 on EGFR L858R was at most 10 nM; on EGFR (d746-750), at most 10 nM; in assay [1], 10.1 to 50 nM.

In the case of `C[C@@H](Oc1cc(N2CC3(COC3)C2)cc2ncnc(Nc3ccc4ncsc4c3)c12)C1COC1` [Example 204, (R)-N-(5-(1-(oxetan-3-yl)ethoxy)-7-(2-oxa-6-azaspiro[3.3]heptan-6-yl)quinazolin-4-yl)benzo[d]thiazol-6-amine], the concentration for half-maximal inhibition (IC50) (on EGFR L858R; at EGFR (d746-750); in assay [1]) was at most 10 nM in each case.

With `CN(C)C[C@@H](Oc1cc(-c2cnn(C)c2)cc2ncnc(Nc3ccc4ncsc4c3)c12)C(F)F` (single isomer, unassigned) [Example 151], the half-inhibitory concentration (IC50) (on EGFR L858R; on EGFR (d746-750); in assay [1]) was at most 10 nM each time.

As to `COCCN1CCC(Oc2cc(-c3cnn(C)c3)cc3ncnc(Nc4ccc5ncsc5c4)c23)CC1` [Example 313, N-(5-((1-(2-methoxyethyl)piperidin-4-yl)oxy)-7-(1-methyl-1H-pyrazol-4-yl)quinazolin-4-yl)benzo[d]thiazol-6-amine], the IC50 at EGFR L858R was at most 10 nM; at EGFR (d746-750), at most 10 nM; in assay [1], 10.1 to 50 nM.

Turning to `C[C@H](CN(C)C)Oc1cc(N2CC[C@@H](C(C)(C)O)C2)cc2ncnc(Nc3ccc4ncsc4c3)c12` [Example 182, 2-((R)-1-(4-(benzo[d]thiazol-6-ylamino)-5-(((R)-1-(dimethylamino)propan-2-yl)oxy)quinazolin-7-yl)pyrrolidin-3-yl)propan-2-ol], the IC50 (on EGFR L858R; on EGFR (d746-750); in assay [1]) was at most 10 nM each time.

For `COC[C@@H](C)Oc1cc(-n2cc([C@@H](C)O)cn2)cc2ncnc(Nc3ccc4ncsc4c3F)c12` (single isomer, unassigned) [Example A19], the IC50 (at EGFR L858R; at EGFR (d746-750); in assay [1]) was at most 10 nM throughout.

Take `C[C@H](CO)n1cc(-c2cc(O[C@H](C)C3COC3)c3c(Nc4ccc5ncsc5c4)ncnc3c2)cn1` (single isomer, unassigned) [Example 297]: the 50% inhibitory concentration (IC50) (on EGFR L858R; on EGFR (d746-750); in assay [1]) was at most 10 nM each time.

Take `C[C@H](Oc1cc(N2CCN(C)C2=O)cc2ncnc(Nc3ccc4ncsc4c3)c12)C1COC1` (single isomer, unassigned) [Example 157]: the IC50 (on EGFR L858R; on EGFR (d746-750); in assay [1]) was at most 10 nM in each case.

With `CC(Oc1cc(-c2cn(C)nc2OC(F)F)cc2ncnc(Nc3ccc4ncsc4c3)c12)C1COC1` (single isomer, unassigned) [Example 172], the figures for the half-maximal inhibitory concentration (IC50) (on EGFR L858R; at EGFR (d746-750); in assay [1]) were at most 10 nM, at most 10 nM and 10.1 to 50 nM, respectively.

Take `CCN1CCN(C(=O)Nc2cc3c(Nc4ccc5ncsc5c4)ncnc3cc2-c2ccn(C)n2)CC1` [Example 253, N-(4-(benzo[d]thiazol-6-ylamino)-7-(1-methyl-1H-pyrazol-3-yl)quinazolin-6-yl)-4-ethylpiperazine-1-carboxamide]: the 50% inhibitory concentration (IC50) (at EGFR L858R; at EGFR (d746-750); in assay [1]) was at most 10 nM throughout.
